From paper PMC3657615 (Nature chemical biology, 2012)

Experiments:
[1] = type: physicochemical
[2] = tested on: RSK2-CTD-mediated autophosphorylation of Ser386; assay: pS386 RSK inhibition in MDA-MB-231 cells; type: cell-based
[3] = Reaction with 10 mM glutathione; type: physicochemical
RSK1/2 [4] = assay: Cellular RSK1/2 occupancy assay using FMK-BODIPY; type: cell-based; conditions: MDA-MB-231 cells
RSK1/2 [5] = assay: Cellular RSK1/2 occupancy after inhibitor washout; type: cell-based; conditions: MDA-MB-231 cells, 1 μM inhibitor

Structure (SMILES) | reaction with BME, stability or reversibility of the adduct [1] | potency relative to CN-NHiPr in the autophosphorylation assay [2] | t1/2 of reaction with 10 mM glutathione [3] | potency relative to CN-NHiPr in the cellular occupancy assay (RSK1/2 [4]) | time to reappearance of inhibitor-free RSK1/2 after washout (RSK1/2 [5])
N#C/C=C/c1ccccc1 [Compound 2, cinnamonitrile] | stable thioether adducts |  |  |  | 
Cc1ccc(-c2c(C(=O)CF)n(CCCO)c3ncnc(N)c23)cc1 [FMK] |  | less potent than CN-NHiPr | 16 h | less potent than CN-NHiPr | at least 48 h
